Consider eight molecules from US20110059910A1, “Novel aromatic fluoroglycoside derivatives, pharmaceuticals comprising said compounds and the use thereof” (SANOFI-AVENTIS, priority 2008, published 2011).

A word on the pIC50: it is the negative decadic logarithm of the IC50, by convention in mol/L. The low end stands for a high IC50, the high end for a low IC50.

pIC50: −log10 of the molar value.

In this experiment the target is T1, human sodium-dependent glucose transporter 2 (SGLT2, SLC5A2) (Homo sapiens, UniProt P31639).
T1 construct: Bases 21 to 2039 correspond to the complete coding region of human SGLT2; expressed in transfected cells
T1 sequence (P31639 1-672): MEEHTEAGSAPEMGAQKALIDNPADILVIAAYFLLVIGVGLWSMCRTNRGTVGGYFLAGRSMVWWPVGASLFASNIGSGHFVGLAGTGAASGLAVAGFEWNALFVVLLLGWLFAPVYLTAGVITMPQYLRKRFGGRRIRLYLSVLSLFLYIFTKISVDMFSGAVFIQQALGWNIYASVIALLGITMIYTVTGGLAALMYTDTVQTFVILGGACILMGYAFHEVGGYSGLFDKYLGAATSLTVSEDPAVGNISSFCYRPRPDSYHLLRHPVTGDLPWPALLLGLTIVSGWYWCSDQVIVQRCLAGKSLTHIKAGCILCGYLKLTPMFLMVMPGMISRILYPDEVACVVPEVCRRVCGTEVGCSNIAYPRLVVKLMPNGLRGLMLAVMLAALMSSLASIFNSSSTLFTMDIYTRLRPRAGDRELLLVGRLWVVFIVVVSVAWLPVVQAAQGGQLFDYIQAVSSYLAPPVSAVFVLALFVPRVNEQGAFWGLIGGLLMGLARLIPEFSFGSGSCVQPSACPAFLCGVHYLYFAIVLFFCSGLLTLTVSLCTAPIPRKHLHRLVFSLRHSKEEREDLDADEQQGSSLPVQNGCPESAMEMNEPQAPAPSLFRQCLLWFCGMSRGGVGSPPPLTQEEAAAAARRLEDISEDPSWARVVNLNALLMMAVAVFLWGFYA
The experiment in a line: Inhibition of the transport activity of human SGLT2 in vitro (α-MDG uptake in CHO-TRex-hSGLT2 cells). It is filed as cell-based. The conditions noted are these: 50 μM α-MDG, 120 min at 37° C. The text has this:
Inhibition of the Transport Activity of the Human Sodium-Dependent Glucose Transporter 2 (SGLT2, SLC5A2) In Vitro
1. Cloning of an Expression Vector for Human SGLT2
The cDNA for human SGLT2 was introduced into the pcDNA4/TO vector (Invitrogen) by means of standard methods of molecular biology as described in Sambrook et al. (Molecular Cloning, A Laboratory Manual, Second Edition). […] Bases 21 to 2039 correspond to the complete coding region of human SGLT2.
2. Production of a Recombinant Cell Line with Inducible Expression of Human SGLT2
The expression vector for human SGLT2 was introduced into CHO-TREx cells (Invitrogen) by means of FuGene6 lipofection (Roche). To select single cell clones, 600 μg/ml of Zeocin (Invitrogen) was added to the cell culture medium (nutrient mixture F-12 (Ham), (Invitrogen) supplemented with 10% fetal calf serum (FBS Gold, PAA), 10 μg/ml Blasticidin S(CN Biosciences), 100 units/ml penicillin, 100 units/ml streptomycin). The functionality of the single cell clones resulting from the selection was tested via their uptake activity for radiolabeled methyl-α-D-glucopyranoside. That cell clone with the highest uptake activity for methyl-α-D-glucopyranoside, referred to hereinafter as CHO-TRex-hSGLT2, was selected for the further experiments and cultured further in the presence of 600 μg/ml Zeocin.
3. Measurement of the Inhibiting Action of Test Substances on the Uptake of methyl-α-D-glucopyranoside (α-MDG)
CHO-TRex-hSGLT2 cells were seeded in cell culture medium in a concentration of 50 000 cells per well in Cytostar-T scintillating 96-well plates (Amersham Biosciences) and cultivated for 24 h. The expression of the recombinant human SGLT2 was induced by adding 1 μg/ml tetrazykline for a further 24 h. For α-MDG uptake experiments, the cells were washed with PBS and then starved at 37° C. in starvation medium (PBS supplemented with 10% fetal calf serum) for 1 hour. After a further washing step with transport assay buffer (140 mM sodium chloride, 2 mm potassium chloride, 1 mm magnesium chloride, 1 mm calcium chloride, 10 mm HEPES/Tris, pH 7.5), the cells were incubated at room temperature either in the absence or presence of test substances of different concentration for 15 min. The test substances were diluted correspondingly in transport assay buffer proceeding from a 10 mm stock solution in dimethyl sulfoxide (40 μl/well). The assay was subsequently started by adding 10 μl/well of a mixture of radiolabeled methyl-α-D-[U-^14C]glucopyranoside (Amersham) and unlabeled methyl-α-D-glucopyranoside (Acros). The final concentration of methyl-α-D-glucopyranoside in the assay was 50 μM. After an incubation time of 120 min at 37° C., the reaction was stopped by adding 50 μl/well of 10 mM methyl-α-D-glucopyranoside in transport assay buffer (4° C.), and the radioactivity taken up into the cells was determined in a MicroBeta Scintillation Microplate Reader (Wallac).
The half-maximum inhibiting action of the test substances (IC50 value) was determined as follows: • 1. Determination of the value for 0% inhibition. This is the measurement in the absence of substance, measured in sodium-containing transport assay buffer. • 2. Determination of the value for 100% inhibition. This is the measurement in the absence of substance, measured in sodium-free transport assay buffer (140 mM choline chloride, 2 mM potassium chloride, 1 mM magnesium chloride, 1 mM calcium chloride, 10 mM HEPES/Tris, pH7.5). • 3. Calculation of the percentage inhibition values of those measurements which were carried out in the presence of different concentrations of test substance. From this, it was then possible to determine that concentration of the test substance which reduces the uptake of the methyl-α-D-glucopyranoside by 50% (IC50 value).
As to `CCOC(=O)OC1C(O)C(c2ccc(Cl)c(Cc3ccc(OCC)cc3)c2)OC(CO)C1(F)F` (centres unmarked) [Example 19], the pIC50 was 6.78.

`CCOC(=O)OC[C@H]1O[C@@H](c2ccc(Cl)c(Cc3ccc(Cl)cc3)c2)[C@H](O)[C@@H](O)C1(F)F` [Example 45] had a pIC50 of 5.52.

`CCOC(=O)OCC1OC(c2ccc(Cl)c(Cc3ccc(OC)cc3)c2)C(O)C(O)C1F` (centres unmarked) [Example 20] had a pIC50 of 5.97.

For the molecule `CCc1ccc(Cc2cc(C3OC(CO)C(F)C(O)C3O)ccc2C(F)(F)F)cc1` (centres unmarked) [Example 52], the pIC50 is 6.97.

Molecule `CCc1ccc(Cc2cccc(C3OC(CO)C(F)C(O)C3O)c2)cc1` (centres unmarked) [Example 4] gave a pIC50 of 6.82.

With `OCC1OC(c2ccc(Cl)c(Cc3ccc(OCC4CC4)cc3)c2)C(O)C(O)C1(F)F` (centres unmarked) [Example 32], the pIC50 is 7.34.

Molecule `CCc1ccc(Cc2cc(C3OC(CO)C(F)(F)C(O)C3O)ccc2C(F)(F)F)cc1` (centres unmarked) [Example 54] gave a pIC50 of 6.59.

`CCOC(=O)OCC1OC(c2ccc(OC)c(Cc3ccc(OC)cc3)c2)C(O)C(O)C1(F)F` (centres unmarked) [Example 14] gave a pIC50 of 5.80.
